Results: PubChem BioAssay (NCI)
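Tested at 5 concentrations; 48 h exposure; 96-well plates; endpoints linearly interpolated, else capped at highest concentration. Abbreviation: GI50, concentration required for 50% inhibition of growth. TGI denotes the concentration required for complete inhibition of growth.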

Tests used:
Test in all cases: DTP human tumour cell line panel, 48 h
SN12C renal = system: SN12C renal
IGROV1 ovarian = system: IGROV1 ovarian
MOLT-4 leukemia = system: MOLT-4 leukemia
SK-MEL-2 melanoma = system: SK-MEL-2 melanoma
K-562 leukemia = system: K-562 leukemia
HCC-2998 colon = system: HCC-2998 colon
HL-60(TB) leukemia = system: HL-60(TB) leukemia
SNB-75 CNS = system: SNB-75 CNS
OVCAR-8 ovarian = system: OVCAR-8 ovarian
RPMI-8226 leukemia = system: RPMI-8226 leukemia

SMILES | TGI (SN12C renal) | TGI (IGROV1 ovarian) | TGI (MOLT-4 leukemia) | TGI (SK-MEL-2 melanoma) | TGI (K-562 leukemia) | TGI (HCC-2998 colon) | TGI (HL-60(TB) leukemia) | TGI (SNB-75 CNS) | TGI (OVCAR-8 ovarian) | TGI (RPMI-8226 leukemia) | GI50 (SN12C renal) | GI50 (IGROV1 ovarian) | GI50 (MOLT-4 leukemia) | GI50 (SK-MEL-2 melanoma) | GI50 (RPMI-8226 leukemia) | GI50 (K-562 leukemia) | GI50 (HL-60(TB) leukemia) | GI50 (SNB-75 CNS) | GI50 (OVCAR-8 ovarian) | GI50 (HCC-2998 colon)
COc1ccc(Nc2nc3c(N)cc(C(F)(F)F)cc3nc2-c2ccccc2)cc1 | > 100 µM | > 100 µM | > 100 µM | > 100 µM | > 100 µM | > 100 µM | > 100 µM | 82.2 µM | > 100 µM | – | – | – | – | – | – | – | – | – | – | –
N/C(=N\N=C=C1C(=O)Nc2ccc(F)cc21)NO | > 100 µM | > 100 µM | > 100 µM | > 100 µM | > 100 µM | > 100 µM | > 100 µM | 65.9 µM | > 100 µM | – | – | – | – | – | – | – | – | – | – | –
CCCCCNC(=O)C1C(=O)N(CCCCC)C(=O)/C1=N\N (stereo not drawn) | > 100 µM | > 100 µM | > 100 µM | 86.2 µM | > 100 µM | > 100 µM | > 100 µM | – | > 100 µM | – | – | – | – | – | – | – | – | – | – | –
CC1(C)OCC(C2OC(On3nnc4ccc(Cl)cc43)C3OC(C)(C)OC23)O1 (stereo not drawn) | > 100 µM | > 100 µM | > 100 µM | > 100 µM | > 100 µM | – | > 100 µM | > 100 µM | > 100 µM | > 100 µM | – | – | – | – | – | – | – | – | – | –
O=S(=O)(Nc1ccc2ccc3cccc4ccc1c2c34)c1ccccc1 | 65.4 µM | > 100 µM | > 100 µM | > 100 µM | > 100 µM | – | > 100 µM | > 100 µM | > 100 µM | 32.5 µM | – | – | – | – | – | – | – | – | – | –
Nc1ncn([C@@H]2C=C(CO)C(O)C2O)c(=O)n1 (stereo partly drawn) | > 100 µM | > 100 µM | > 100 µM | > 100 µM | > 100 µM | > 100 µM | > 100 µM | – | > 100 µM | > 100 µM | – | – | – | – | – | – | – | – | – | –
Cc1cc2c(C)nn(Cc3ccc(Cl)cc3Cl)c2c(C#N)c1C | > 100 µM | > 100 µM | > 100 µM | > 100 µM | – | > 100 µM | > 100 µM | > 100 µM | > 100 µM | > 100 µM | – | – | – | – | – | – | – | – | – | –
COc1ccc(C(=O)Nc2ccccc2)cc1[N+](=O)[O-] | > 100 µM | > 100 µM | > 100 µM | > 100 µM | > 100 µM | – | – | > 100 µM | > 100 µM | > 100 µM | – | – | – | – | – | – | – | – | – | –
COc1ccc2c(c1)C(=O)/C(=C/c1ccc(OCC(=O)c3ccc(Cl)cc3)cc1)O2 | 63.9 µM | 35.3 µM | 12.8 µM | 99.9 µM | 4.64 µM | – | 16.9 µM | 79.9 µM | > 100 µM | 21.6 µM | 17.3 µM | 11.1 µM | 3.03 µM | 26.7 µM | 3.87 µM | 1.77 µM | 2.89 µM | 12.2 µM | 42.4 µM | –
Clc1ccc(C2=NN(c3ccccc3)C3c4cc(Br)ccc4OCC23)cc1 (stereo not drawn) | – | > 100 µM | > 100 µM | > 100 µM | > 100 µM | > 100 µM | > 100 µM | > 100 µM | > 100 µM | > 100 µM | – | – | – | – | – | – | – | – | – | –
Cn1cc(-c2nonc2-c2cn(C)c3ccc(Br)cc23)c2ccccc21 | > 100 µM | > 100 µM | – | > 100 µM | > 100 µM | > 100 µM | > 100 µM | 7.71 µM | > 100 µM | > 100 µM | 5.25 µM | 5.13 µM | – | 3.36 µM | 3.32 µM | 1.08 µM | 2.95 µM | 1.77 µM | 5.14 µM | 5.45 µM
Cc1ccc(C)c(NC(=O)CCC(=O)CC(=O)C(C)(C)C)c1 | > 100 µM | > 100 µM | > 100 µM | > 100 µM | > 100 µM | > 100 µM | – | > 100 µM | > 100 µM | > 100 µM | – | – | – | – | – | – | – | – | – | –
Cn1cccc1C1CC(=O)N(CCC[Se]C#N)C1=O (stereo not drawn) | – | 4.68 µM | 7.43 µM | 5.31 µM | 29.9 µM | 10.1 µM | 4.68 µM | – | 4.44 µM | 5.04 µM | – | 1.86 µM | 2.16 µM | 2.13 µM | 2.2 µM | 3.2 µM | 2.11 µM | – | 2.05 µM | 2.96 µM
CNS(=O)(=O)NN(C)S(=O)(=O)c1ccc(C)cc1 | > 100 µM | > 100 µM | > 100 µM | > 100 µM | – | > 100 µM | > 100 µM | – | > 100 µM | > 100 µM | – | – | – | – | – | – | – | – | – | –
CC1(C)CC[C@]2(C(=O)O)CCC3(C)C(=CCC4[C@@]5(C)CC[C@H](OC6OCC(O)C(O)C6OC6OC(CO)C(O)C(O)C6O)C(C)(C)C5CC[C@]43C)C2C1 (stereo partly drawn) | 3.42 µM | 5.23 µM | 7.95 µM | – | – | 3.16 µM | – | 4.6 µM | 4.12 µM | 6.71 µM | – | – | – | – | – | – | – | – | – | –
COc1ccc(Br)c(CCCCC(=O)O)c1 | > 100 µM | > 100 µM | > 100 µM | – | > 100 µM | > 100 µM | > 100 µM | > 100 µM | > 100 µM | > 100 µM | – | – | – | – | – | – | – | – | – | –
COc1cc2nc(-c3ccc(Cl)cc3)cc(OCCCN3CCC(O)CC3)c2cc1OC | 22.1 µM | 14.9 µM | 4.54 µM | 5.05 µM | 6.75 µM | 5.93 µM | 18.7 µM | 5.43 µM | 20.7 µM | – | 1.26 µM | 0.923 µM | 1.8 µM | 2.07 µM | – | 1.63 µM | 4.27 µM | 1.76 µM | 2 µM | 1.95 µM
Oc1ccc(-c2nc(-c3ccc(F)cc3)c(-c3ccncc3)[nH]2)cc1 | > 100 µM | 29.4 µM | 32.5 µM | – | > 100 µM | > 100 µM | 67.1 µM | > 100 µM | > 100 µM | 38.2 µM | 14.9 µM | 4.3 µM | 7.97 µM | – | 11.7 µM | 15.9 µM | 18.1 µM | 8.86 µM | 22.1 µM | 36.7 µM
NC(=NCc1ccccc1)N/N=C\c1ccnc2ccccc12 | 29.6 µM | – | 46 µM | 22.1 µM | 24.2 µM | 4.51 µM | 36.4 µM | 21.5 µM | 29.9 µM | 4.14 µM | – | – | – | – | – | – | – | – | – | –
COC(=O)C12C3C=CC(O3)C1C1C=CC2O1 (stereo not drawn) | > 100 µM | > 100 µM | > 100 µM | > 100 µM | > 100 µM | > 100 µM | > 100 µM | – | > 100 µM | > 100 µM | – | – | – | – | – | – | – | – | – | –
